Tested on: 485176-168-R4-J1-PDC spheroids with HUVEC/MSC, viability
Assay: Anticancer human tumor 485176-168-R4-J1-PDC patient-derived pancreatic adenocarcinoma cell line growth inhibition [GQUAD]
Settings: for IC50: curve of first compound; for viability, T/C: stronger effect = lower value
Outline: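 Viability of tumor cells grown as complex spheroids with endothelial and stromal cells, exposed to drug combinations. Top concentration at or near clinical Cmax (else 10 microM), diluted in half-log increments.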

[1] = second compound 0.0316 µM, first compound 0.0316 µM
[2] = second compound 0.0316 µM, first compound 0.1 µM
[3] = second compound 0.0316 µM, first compound 0.316 µM
[4] = second compound 0.0316 µM, first compound 1 µM
[5] = second compound 0.0316 µM, first compound 3.16 µM
[6] = second compound 0.0316 µM, first compound 10 µM
[7] = second compound 0.1 µM, first compound 0.0316 µM
[8] = second compound 0.1 µM, first compound 0.1 µM
[9] = second compound 0.1 µM, first compound 0.316 µM
[10] = second compound 0.1 µM, first compound 1 µM
[11] = second compound 0.1 µM, first compound 3.16 µM
[12] = second compound 0.1 µM, first compound 10 µM
[13] = second compound 0.316 µM, first compound 0.0316 µM
[14] = second compound 0.316 µM, first compound 0.1 µM
[15] = second compound 0.316 µM, first compound 0.316 µM
[16] = second compound 0.316 µM, first compound 1 µM
[17] = second compound 0.316 µM, first compound 3.16 µM
[18] = second compound 0.316 µM, first compound 10 µM
[19] = second compound 1 µM, first compound 0.0316 µM
[20] = second compound 1 µM, first compound 0.1 µM
[21] = second compound 1 µM, first compound 0.316 µM
[22] = second compound 1 µM, first compound 1 µM
[23] = second compound 1 µM, first compound 3.16 µM
[24] = second compound 1 µM, first compound 10 µM
[25] = second compound 3.16 µM, first compound 0.0316 µM
[26] = second compound 3.16 µM, first compound 0.1 µM
[27] = second compound 3.16 µM, first compound 0.316 µM
[28] = second compound 3.16 µM, first compound 1 µM
[29] = second compound 3.16 µM, first compound 3.16 µM
[30] = second compound 3.16 µM, first compound 10 µM
[31] = second compound 10 µM, first compound 0.0316 µM
[32] = second compound 10 µM, first compound 0.1 µM
[33] = second compound 10 µM, first compound 0.316 µM
[34] = second compound 10 µM, first compound 1 µM
[35] = second compound 10 µM, first compound 3.16 µM
[36] = second compound 10 µM, first compound 10 µM
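Also: spheroids exposed to compounds for seven days before readout.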
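For viability, T/C in this document: percent viability relative to DMSO vehicle control wells as 100%.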

For `COc1cc(C2c3cc4c(cc3C(OC3OC5COC(C)OC5C(O)C3O)C3COC(=O)C23)OCO4)cc(OC)c1O` (centres undefined) + Cc1cnc(CNC(=O)c2c(=O)c3ccc(N4CCCN(C)CC4)nc3n3c2sc2ccccc23)cn1, the IC50 (second compound 0.0316 µM) was 0.322 µM, the IC50 (second compound 0.1 µM) was 0.171 µM and the IC50 (second compound 0.316 µM) was 0.123 µM. It also gave an IC50 (second compound 1 µM) of under 0.0316 µM, an IC50 (second compound 3.16 µM) of under 0.0316 µM and an IC50 (second compound 10 µM) of under 0.0316 µM. It also gave a viability, T/C [1] of 87.9%, a viability, T/C [2] of 63.1% and a viability, T/C [3] of 49.7%. It also gave a viability, T/C [4] of 38.1%, a viability, T/C [5] of 21% and a viability, T/C [6] of 8.67%. The viability, T/C [7] was 65.4%, the viability, T/C [8] was 55.4% and the viability, T/C [9] was 40.6%. For the same molecule, the viability, T/C [10] was 36%, the viability, T/C [11] was 22.3% and the viability, T/C [12] was 8.6%. For the same molecule, the viability, T/C [13] was 55.6%, the viability, T/C [14] was 53.6% and the viability, T/C [15] was 38.2%. It also gave a viability, T/C [16] of 41.3%, a viability, T/C [17] of 24.3% and a viability, T/C [18] of 8.95%. It also gave a viability, T/C [19] of 56%, a viability, T/C [20] of 41.8% and a viability, T/C [21] of 47.4%. The viability, T/C [22] was 41.5%, the viability, T/C [23] was 18.4% and the viability, T/C [24] was 9.08%. For the same molecule, the viability, T/C [25] was 49.9%, the viability, T/C [26] was 33.8% and the viability, T/C [27] was 35.7%. For the same molecule, the viability, T/C [28] was 34.8%, the viability, T/C [29] was 22.8% and the viability, T/C [30] was 8.98%. For the same molecule, the viability, T/C [31] was 42.4%, the viability, T/C [32] was 38.9% and the viability, T/C [33] was 39.1%. The viability, T/C [34] was 33.3%, the viability, T/C [35] was 18.1% and the viability, T/C [36] was 3.75%.
Work on `Nc1ccn(C2OC(CO)C(O)C2(F)F)c(=O)n1` (centres undefined) + CN(C)c1ccc(Nc2c3ccc(NC(=O)CCN4CCCC4)cc3nc3cc(NC(=O)CCN4CCCC4)ccc23)cc1 yielded an IC50 (second compound 0.0316 µM) of 0.0491 µM, an IC50 (second compound 0.1 µM) of 0.0459 µM and an IC50 (second compound 0.316 µM) of 0.0436 µM. For the same molecule, the IC50 (second compound 1 µM) was 0.0612 µM, the IC50 (second compound 3.16 µM) was 0.0559 µM and the IC50 (second compound 10 µM) was 0.0413 µM. The viability, T/C [1] was 70.3%, the viability, T/C [2] was 17.4% and the viability, T/C [3] was 10.6%. It also gave a viability, T/C [4] of 9.81%, a viability, T/C [5] of 10.5% and a viability, T/C [6] of 12.1%. For the same molecule, the viability, T/C [7] was 63.7%, the viability, T/C [8] was 22% and the viability, T/C [9] was 10.5%. It also gave a viability, T/C [10] of 10.5%, a viability, T/C [11] of 10.3% and a viability, T/C [12] of 10.9%. For the same molecule, the viability, T/C [13] was 62.1%, the viability, T/C [14] was 19.4% and the viability, T/C [15] was 10.4%. For the same molecule, the viability, T/C [16] was 10.9%, the viability, T/C [17] was 10.5% and the viability, T/C [18] was 13.7%. It also gave a viability, T/C [19] of 90.1%, a viability, T/C [20] of 20.1% and a viability, T/C [21] of 10.6%. It also gave a viability, T/C [22] of 12.5%, a viability, T/C [23] of 11.6% and a viability, T/C [24] of 9.65%. For the same molecule, the viability, T/C [25] was 81.3%, the viability, T/C [26] was 18.1% and the viability, T/C [27] was 10.6%. For the same molecule, the viability, T/C [28] was 11.5%, the viability, T/C [29] was 10% and the viability, T/C [30] was 11.9%. For the same molecule, the viability, T/C [31] was 58%, the viability, T/C [32] was 23.7% and the viability, T/C [33] was 10.4%. For the same molecule, the viability, T/C [34] was 10.9%, the viability, T/C [35] was 11.1% and the viability, T/C [36] was 11.2%.

Source: PubChem BioAssay AID2060509 (Molecular Pharmacology Branch, DTP, NCI, 2025)
